pIC50: −log10 of the molar value.
Test system: 328373-195-R-J1-PDC complex spheroids, viability % test/control
Experiment: Anticancer human tumor 328373-195-R-J1-PDC patient-derived head and neck squamous carcinoma cell line growth inhibition [CLK]
Conditions: for pIC50: curve of first compound; for viability, T/C: stronger effect = lower value
Summary of the method: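 Patient-derived tumor cells grown as complex spheroids with HUVEC endothelial cells and mesenchymal stem cells, treated with drug combinations. Concentrations descend in half-log steps from near clinical Cmax, or from 10 microM if Cmax unknown.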

[1] = second compound 0.0316 µM, first compound 0.0316 µM
[2] = second compound 0.0316 µM, first compound 0.1 µM
[3] = second compound 0.0316 µM, first compound 0.316 µM
[4] = second compound 0.0316 µM, first compound 1 µM
[5] = second compound 0.0316 µM, first compound 3.16 µM
[6] = second compound 0.0316 µM, first compound 10 µM
[7] = second compound 0.1 µM, first compound 0.0316 µM
[8] = second compound 0.1 µM, first compound 0.1 µM
[9] = second compound 0.1 µM, first compound 0.316 µM
[10] = second compound 0.1 µM, first compound 1 µM
[11] = second compound 0.1 µM, first compound 3.16 µM
[12] = second compound 0.1 µM, first compound 10 µM
[13] = second compound 0.316 µM, first compound 0.0316 µM
[14] = second compound 0.316 µM, first compound 0.1 µM
[15] = second compound 0.316 µM, first compound 0.316 µM
[16] = second compound 0.316 µM, first compound 1 µM
[17] = second compound 0.316 µM, first compound 3.16 µM
[18] = second compound 0.316 µM, first compound 10 µM
[19] = second compound 1 µM, first compound 0.0316 µM
[20] = second compound 1 µM, first compound 0.1 µM
[21] = second compound 1 µM, first compound 0.316 µM
[22] = second compound 1 µM, first compound 1 µM
[23] = second compound 1 µM, first compound 3.16 µM
[24] = second compound 1 µM, first compound 10 µM
[25] = second compound 3.16 µM, first compound 0.0316 µM
[26] = second compound 3.16 µM, first compound 0.1 µM
[27] = second compound 3.16 µM, first compound 0.316 µM
[28] = second compound 3.16 µM, first compound 1 µM
[29] = second compound 3.16 µM, first compound 3.16 µM
[30] = second compound 3.16 µM, first compound 10 µM
[31] = second compound 10 µM, first compound 0.0316 µM
[32] = second compound 10 µM, first compound 0.1 µM
[33] = second compound 10 µM, first compound 0.316 µM
[34] = second compound 10 µM, first compound 1 µM
[35] = second compound 10 µM, first compound 3.16 µM
[36] = second compound 10 µM, first compound 10 µM
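Also: spheroids exposed to the agents for 7 days.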

## CC(=O)O[C@H]1C(=O)[C@@]2(C)[C@H]([C@H](OC(=O)c3ccccc3)[C@]3(O)C[C@H](OC(=O)[C@H](O)[C@@H](NC(=O)c4ccccc4)c4ccccc4)C(C)=C1C3(C)C)[C@]1(OC(C)=O)CO[C@@H]1C[C@@H]2O + CN1CCN(c2cc(C(=O)Nc3cc4cc(-c5cnn(C)c5)ccc4cn3)ccn2)CC1
Second compound 0.0316 µM
  pIC50: > 7.50
Second compound 0.1 µM
  pIC50: > 7.50
Second compound 0.316 µM
  pIC50: > 7.50
Second compound 1 µM
  pIC50: > 7.50
Second compound 3.16 µM
  pIC50: > 7.50
Second compound 10 µM
  pIC50: > 7.50
[1]
  viability, T/C: 7.74%
[2]
  viability, T/C: 4.32%
[3]
  viability, T/C: 7.3%
[4]
  viability, T/C: 5.75%
[5]
  viability, T/C: 9.83%
[6]
  viability, T/C: 12.9%
[7]
  viability, T/C: 2.72%
[8]
  viability, T/C: 2.97%
[9]
  viability, T/C: 8.34%
[10]
  viability, T/C: 5.1%
[11]
  viability, T/C: 7.93%
[12]
  viability, T/C: 9.97%
[13]
  viability, T/C: 3.35%
[14]
  viability, T/C: 5.31%
[15]
  viability, T/C: 5.81%
[16]
  viability, T/C: 5.22%
[17]
  viability, T/C: 5.91%
[18]
  viability, T/C: 10.6%
[19]
  viability, T/C: 0.18%
[20]
  viability, T/C: 0.12%
[21]
  viability, T/C: 0.12%
[22]
  viability, T/C: 0.07%
[23]
  viability, T/C: 0.08%
[24]
  viability, T/C: 0.07%
[25]
  viability, T/C: 2.71%
[26]
  viability, T/C: 0.11%
[27]
  viability, T/C: 0.12%
[28]
  viability, T/C: 0.08%
[29]
  viability, T/C: 0.76%
[30]
  viability, T/C: 2.99%
[31]
  viability, T/C: 1.85%
[32]
  viability, T/C: 1.39%
[33]
  viability, T/C: 0.15%
[34]
  viability, T/C: 0.17%
[35]
  viability, T/C: 2.04%
[36]
  viability, T/C: 2.05%

## CCc1c2c(nc3ccc(O)cc13)-c1cc3c(c(=O)n1C2)COC(=O)[C@]3(O)CC + CN1CCN(c2cc(C(=O)Nc3cc4cc(-c5cnn(C)c5)ccc4cn3)ccn2)CC1
Second compound 0.0316 µM
  pIC50: > 8.50
Second compound 0.1 µM
  pIC50: > 8.50
Second compound 0.316 µM
  pIC50: > 8.50
Second compound 1 µM
  pIC50: > 8.50
Second compound 3.16 µM
  pIC50: > 8.50
Second compound 10 µM
  pIC50: > 8.50
Second compound 0.0316 µM, first compound 0.00316 µM
  viability, T/C: 12.2%
Second compound 0.0316 µM, first compound 0.01 µM
  viability, T/C: 1.41%
[1]
  viability, T/C: 2.09%
[2]
  viability, T/C: 0.42%
[3]
  viability, T/C: 0.89%
[4]
  viability, T/C: 2.49%
Second compound 0.1 µM, first compound 0.00316 µM
  viability, T/C: 10.9%
Second compound 0.1 µM, first compound 0.01 µM
  viability, T/C: 2.12%
[7]
  viability, T/C: 2.78%
[8]
  viability, T/C: 0.32%
[9]
  viability, T/C: 1.24%
[10]
  viability, T/C: 0.18%
Second compound 0.316 µM, first compound 0.00316 µM
  viability, T/C: 7.1%
Second compound 0.316 µM, first compound 0.01 µM
  viability, T/C: 3.19%
[13]
  viability, T/C: 1.44%
[14]
  viability, T/C: 0.21%
[15]
  viability, T/C: 0.41%
[16]
  viability, T/C: 0.05%
Second compound 1 µM, first compound 0.00316 µM
  viability, T/C: 0.07%
Second compound 1 µM, first compound 0.01 µM
  viability, T/C: 1.93%
[19]
  viability, T/C: 2.72%
[20]
  viability, T/C: 0.03%
[21]
  viability, T/C: 0.04%
[22]
  viability, T/C: 0.78%
Second compound 3.16 µM, first compound 0.00316 µM
  viability, T/C: 0.96%
Second compound 3.16 µM, first compound 0.01 µM
  viability, T/C: 0.54%
[25]
  viability, T/C: 0.11%
[26]
  viability, T/C: 2.41%
[27]
  viability, T/C: 2.52%
[28]
  viability, T/C: 0.11%
Second compound 10 µM, first compound 0.00316 µM
  viability, T/C: 0.51%
Second compound 10 µM, first compound 0.01 µM
  viability, T/C: 0.1%
[31]
  viability, T/C: 1.56%
[32]
  viability, T/C: 0.07%
[33]
  viability, T/C: 1.03%
[34]
  viability, T/C: 2.56%

## O=c1[nH]cc(F)c(=O)[nH]1 + CN1CCN(c2cc(C(=O)Nc3cc4cc(-c5cnn(C)c5)ccc4cn3)ccn2)CC1
Second compound 0.0316 µM
  pIC50: 7.23
Second compound 0.1 µM
  pIC50: 7.21
Second compound 0.316 µM
  pIC50: > 7.50
Second compound 1 µM
  pIC50: > 7.50
Second compound 3.16 µM
  pIC50: > 7.50
Second compound 10 µM
  pIC50: > 7.50
[1]
  viability, T/C: 76.7%
[2]
  viability, T/C: 26.6%
[3]
  viability, T/C: 13.9%
[4]
  viability, T/C: 9.49%
[5]
  viability, T/C: 10.6%
[6]
  viability, T/C: 13.6%
[7]
  viability, T/C: 74.7%
[8]
  viability, T/C: 32.6%
[9]
  viability, T/C: 12.5%
[10]
  viability, T/C: 10.6%
[11]
  viability, T/C: 10.2%
[12]
  viability, T/C: 16.8%
[13]
  viability, T/C: 25.9%
[14]
  viability, T/C: 14.3%
[15]
  viability, T/C: 14.6%
[16]
  viability, T/C: 7.98%
[17]
  viability, T/C: 6.74%
[18]
  viability, T/C: 5.92%
[19]
  viability, T/C: 0.13%
[20]
  viability, T/C: 4.38%
[21]
  viability, T/C: 0.56%
[22]
  viability, T/C: 0.05%
[23]
  viability, T/C: 2.73%
[24]
  viability, T/C: 0.78%
[25]
  viability, T/C: 0.03%
[26]
  viability, T/C: 3.69%
[27]
  viability, T/C: 4.78%
[28]
  viability, T/C: 0.03%
[29]
  viability, T/C: 0.16%
[30]
  viability, T/C: 0.08%
[31]
  viability, T/C: 0.03%
[32]
  viability, T/C: 0.64%
[33]
  viability, T/C: 2.65%
[34]
  viability, T/C: 0.06%
[35]
  viability, T/C: 4.08%
[36]
  viability, T/C: 1.3%

Reference: PubChem BioAssay AID2060620 (Molecular Pharmacology Branch, DTP, NCI, 2025)
